Assay results from patent US20200188466A1, “COMPOSITIONS OF SCHISANDRA EXTRACTS AND METHODS THEREOF” (Reyoung Corporation, priority 2017, published 2020).
Read-outs that look alike come from different tables or passages of the source.

Assay: Plasma kinetic study of colchicine with and without Schisandrin A
Type: in vivo
Details: male, Sprague Dawley, rat, po, 3 mg/kg; for AUC(0-t): read-out: AUC0→t of colchicine; for AUC(0-inf): read-out: AUC0→∞ of colchicine; for MRT last: read-out: MRT0→t of colchicine; for MRT inf: read-out: MRT0→∞ of colchicine; for half-life: read-out: T1/2 of colchicine (converted)
Experimental: 42 Male Sprague Dawley rats (weight, 170-210 g) were maintained on a 12-h light/dark cycle with free access to water and lab chow for 10-14 h prior to the experiment. Rats were randomly divided into 7 groups (n=6 each) and groups 2-7 received 0 mg/kg, 6.3 mg/kg, and 12.6 mg/kg, 25.2 mg/kg, 50.4 mg/kg and 63.0 mg/kg of Schisandrin A in 1% CMC-Na (300-800 cps) via oral administration, respectively. After 5 minutes, all the groups received 3.0 mg/kg of colchicine in a solution of 2% DMSO-98% sterile water via oral administration.
After colchicine treatment, blood samples were collected from individual rat at 5 min, 15 min, 0.5 h, 1 h, 2 h, 4 h, 6 h, 8 h, 10 h, 24 h respectively. Plasma was separated by centrifugation at 8000 rpm for 6 minutes at 4° C. and kept at −80° C. until analysis. Plasma homogenate was injected into LC-MS/MS for analysis. Pharmacokinetic parameters of colchicine after a single oral dose of colchicine (3.0 mg/kg) in rats with and without different dose of Schisandrin A, including area under the concentration-time curve (AUC), mean residence time (MRT) and terminal elimination half-life (T1/2), Cmax, and Tmax are shown in Table 5.

[1] = Group1, rats, colchicine 3.0 mg/kg oral, no Schisandrin A dose stated
[2] = Group2, rats, Schisandrin A 0 mg/kg oral 5 min before colchicine 3.0 mg/kg oral
[3] = Group3, rats, Schisandrin A 6.3 mg/kg oral 5 min before colchicine 3.0 mg/kg oral
[4] = Group4, rats, Schisandrin A 12.6 mg/kg oral 5 min before colchicine 3.0 mg/kg oral
[5] = Group5, rats, Schisandrin A 25.2 mg/kg oral 5 min before colchicine 3.0 mg/kg oral
[6] = Group6, rats, Schisandrin A 50.4 mg/kg oral 5 min before colchicine 3.0 mg/kg oral
[7] = Group7, rats, Schisandrin A 63.0 mg/kg oral 5 min before colchicine 3.0 mg/kg oral

## COc1cc2c(c(OC)c1OC)-c1ccc(OC)c(=O)cc1[C@@H](NC(C)=O)CC2 [colchicine]
[1]
  Cmax: 13.4 ± 4.38 ng/mL
  Tmax: 0.17 ± 0.09 h
  AUC(0-t): 48.9 ± 14.9 ng·h/mL
  AUC(0-inf): 57.5 ± 16.1 ng·h/mL
  MRT last: 4.54 ± 1.33 h
  MRT inf: 6.99 ± 1.99 h
  half-life: 5.2 ± 2.31 h
[2]
  Cmax: 10.2 ± 2.63 ng/mL
  Tmax: 0.22 ± 0.07 h
  AUC(0-t): 32.9 ± 20.9 ng·h/mL
  AUC(0-inf): 40.6 ± 22.2 ng·h/mL
  MRT last: 3.89 ± 1.74 h
  MRT inf: 6.86 ± 2.77 h
  half-life: 4.67 ± 2.04 h
[3]
  Cmax: 24.4 ± 6.12 ng/mL
  Tmax: 0.19 ± 0.09 h
  AUC(0-t): 74.4 ± 27 ng·h/mL
  AUC(0-inf): 84.5 ± 30.5 ng·h/mL
  MRT last: 5.04 ± 1.86 h
  MRT inf: 7.67 ± 3.34 h
  half-life: 6.12 ± 2.86 h
[4]
  Cmax: 25.7 ± 9.67 ng/mL
  Tmax: 0.19 ± 0.09 h
  AUC(0-t): 71 ± 33.3 ng·h/mL
  AUC(0-inf): 79.7 ± 34.9 ng·h/mL
  MRT last: 3.95 ± 1.2 h
  MRT inf: 6.54 ± 3.18 h
  half-life: 6.56 ± 4.7 h
[5]
  Cmax: 29.3 ± 11.9 ng/mL
  Tmax: 0.11 ± 0.07 h
  AUC(0-t): 75.5 ± 27.6 ng·h/mL
  AUC(0-inf): 86.8 ± 36.2 ng·h/mL
  MRT last: 4.04 ± 1.44 h
  MRT inf: 7.29 ± 4.72 h
  half-life: 7.53 ± 6.49 h
[6]
  Cmax: 48.2 ± 12.4 ng/mL
  Tmax: 0.31 ± 0.16 h
  AUC(0-t): 151 ± 41.4 ng·h/mL
  AUC(0-inf): 186 ± 70.5 ng·h/mL
  MRT last: 5.1 ± 0.77 h
  MRT inf: 11.7 ± 6.87 h
  half-life: 13 ± 6.29 h
[7]
  Cmax: 33.8 ± 14 ng/mL
  Tmax: 0.26 ± 0.13 h
  AUC(0-t): 84.8 ± 39.3 ng·h/mL
  AUC(0-inf): 98.7 ± 41.9 ng·h/mL
  MRT last: 4.09 ± 1.76 h
  MRT inf: 7.52 ± 3.62 h
  half-life: 7.59 ± 3.65 h
